These results are taken from patent US20140073651A1, “BENZAMIDE DERIVATIVES AS P2X7 RECEPTOR ANTAGONISTS” (Actelion Pharmaceuticals Ltd., priority 2011, published 2014).

In the test the target is T1, human recombinant P2X7 receptor (Homo sapiens, UniProt Q99572).
T1 construct: expressed in transfected cells
T1 sequence (Q99572 1-595): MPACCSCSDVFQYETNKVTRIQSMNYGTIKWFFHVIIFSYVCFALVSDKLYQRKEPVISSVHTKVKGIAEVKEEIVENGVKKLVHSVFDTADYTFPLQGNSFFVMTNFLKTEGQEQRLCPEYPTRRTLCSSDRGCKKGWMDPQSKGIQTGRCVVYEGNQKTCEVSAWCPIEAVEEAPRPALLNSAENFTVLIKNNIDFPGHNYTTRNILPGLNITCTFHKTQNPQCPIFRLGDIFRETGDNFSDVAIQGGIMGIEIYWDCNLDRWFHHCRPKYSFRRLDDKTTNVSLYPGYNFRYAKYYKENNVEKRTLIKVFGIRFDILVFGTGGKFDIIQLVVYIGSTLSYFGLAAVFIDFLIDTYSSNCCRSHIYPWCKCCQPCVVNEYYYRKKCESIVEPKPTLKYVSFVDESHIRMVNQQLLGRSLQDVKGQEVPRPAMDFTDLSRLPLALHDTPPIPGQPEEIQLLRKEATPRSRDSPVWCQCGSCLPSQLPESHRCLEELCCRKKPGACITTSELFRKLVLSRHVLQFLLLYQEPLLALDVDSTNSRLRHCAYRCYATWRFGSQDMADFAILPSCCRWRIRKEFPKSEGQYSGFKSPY
The experiment in a line: YO-PRO assay (YO-PRO-1 uptake) in HEK cells stably expressing P2X7. The note with it: HEK-293 cells expressing human recombinant P2X7 receptor; ATP 250 μM, 90 minutes; YO-PRO-1 fluorescence (FLIPR tetra); read-out: IC50 (antagonistic activity with respect to the P2X7 receptor). The format is cell-based. A digest of the protocol: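 Antagonist serially diluted (duplicates) on P2X7-expressing HEK cells in buffer with 0.5 μM YO-PRO-1; dye uptake followed on FLIPR Tetra over four time points. IC50 from maximum fluorescence intensity versus compound concentration.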
As usually defined, the IC50 is the concentration needed to halve the response being measured. On to `CNc1cccc(Oc2ccc(Cl)c(C(=O)NCC3(O)CCCCC3)c2)n1` [Example 109, 2-Chloro-N-(1-hydroxy-cyclohexylmethyl)-5-(6-methylamino-pyridin-2-yloxy)-benzamide], for which the IC50 turned out to be 53 nM. In the case of `CN(C)c1cccc(Oc2ccc(Cl)c(C(=O)NCC3(O)CCCCC3)c2)n1` [Example 110, 2-Chloro-5-(6-dimethylamino-pyridin-2-yloxy)-N-(1-hydroxy-cyclohexylmethyl)-benzamide], the IC50 was 122 nM.

Turning to `COc1cccc(Oc2ccc(Cl)c(C(=O)NCC3(O)CCCCC3)c2)n1` [Example 111, 2-Chloro-N-(1-hydroxy-cyclohexylmethyl)-5-(6-methoxy-pyridin-2-yloxy)-benzamide], the concentration for half-maximal inhibition (IC50) turned out to be 21 nM. Turning to `O=C(NCC1(O)CCCCC1)c1cc(Oc2cccc(=O)[nH]2)ccc1Cl` [Example 112, 2-Chloro-N-(1-hydroxy-cyclohexylmethyl)-5-(6-oxo-1,6-dihydro-pyridin-2-yloxy)-benzamide], the 50% inhibitory concentration (IC50) was found to be 43 nM.

In the case of `Cn1c(Oc2ccc(Cl)c(C(=O)NCC3(O)CCCCC3)c2)cccc1=O` [Example 113, 2-Chloro-N-(1-hydroxy-cyclohexylmethyl)-5-(1-methyl-6-oxo-1,6-dihydro-pyridin-2-yloxy)-benzamide], the IC50 came out at 96 nM.

`O=C(NCC1(O)CCCCC1)c1cc(Oc2ccncn2)ccc1Cl` [Example 114, 2-Chloro-N-(1-hydroxy-cyclohexylmethyl)-5-(pyrimidin-4-yloxy)-benzamide]: the half-inhibitory concentration (IC50) was 100 nM. In the case of `O=C(NCC1(O)CCCCC1)c1cc(Oc2ccnc(Cl)n2)ccc1Cl` [Example 115, 2-Chloro-5-(2-chloro-pyrimidin-4-yloxy)-N-(1-hydroxy-cyclohexylmethyl)-benzamide] it was 191 nM; in that of `CNc1nccc(Oc2ccc(Cl)c(C(=O)NCC3(O)CCCCC3)c2)n1` [Example 116, 2-Chloro-N-(1-hydroxy-cyclohexylmethyl)-5-(2-methylamino-pyrimidin-4-yloxy)-benzamide], 172 nM; in that of `CN(C)c1nccc(Oc2ccc(Cl)c(C(=O)NCC3(O)CCCCC3)c2)n1` [Example 117, 2-Chloro-5-(2-dimethylamino-pyrimidin-4-yloxy)-N-(1-hydroxy-cyclohexylmethyl)-benzamide], 427 nM. For `O=C(NCC1(O)CCC(F)(F)CC1)c1cc(Oc2cc[nH]c(=O)n2)ccc1Cl` [Example 118, 2-Chloro-N-(4,4-difluoro-1-hydroxy-cyclohexylmethyl)-5-(2-oxo-1,2-dihydro-pyrimidin-4-yloxy)-benzamide], the half-inhibitory concentration (IC50) amounted to 14 nM. With `O=C(NCC1(O)CCCCC1)c1cc(Oc2ccnc(=O)[nH]2)ccc1Cl` [Example 119, 2-Chloro-N-(1-hydroxy-cyclohexylmethyl)-5-(2-oxo-2,3-dihydro-pyrimidin-4-yloxy)-benzamide], the IC50 stood at 796 nM. In the case of `COc1nccc(Oc2ccc(Cl)c(C(=O)NCC3(O)CCCCC3)c2)n1` [Example 120, 2-Chloro-N-(1-hydroxy-cyclohexylmethyl)-5-(2-methoxy-pyrimidin-4-yloxy)-benzamide] it was 111 nM; in that of `O=C(NCC1(O)CCCCC1)c1cc(Oc2cnccn2)ccc1Cl` [Example 121, 2-Chloro-N-(1-hydroxy-cyclohexylmethyl)-5-(pyrazin-2-yloxy)-benzamide], 93 nM; in that of `O=C(NCC1(O)CCCCC1)c1cc(Oc2cncc(Cl)n2)ccc1Cl` [Example 122, 2-Chloro-5-(6-chloro-pyrazin-2-yloxy)-N-(1-hydroxy-cyclohexylmethyl)-benzamide], 101 nM. As to `COc1cncc(Oc2ccc(Cl)c(C(=O)NCC3(O)CCCCC3)c2)n1` [Example 123, 2-Chloro-N-(1-hydroxy-cyclohexylmethyl)-5-(6-methoxy-pyrazin-2-yloxy)-benzamide], the half-maximal inhibitory concentration (IC50) is 123 nM. Consider `CNc1cncc(Oc2ccc(Cl)c(C(=O)NCC3(O)CCCCC3)c2)n1` [Example 124, 2-Chloro-N-(1-hydroxy-cyclohexylmethyl)-5-(6-methylamino-pyrazin-2-yloxy)-benzamide], for which the half-maximal inhibitory concentration (IC50) came to 163 nM. In the case of `CN(C)c1cncc(Oc2ccc(Cl)c(C(=O)NCC3(O)CCCCC3)c2)n1` [Example 125, 2-Chloro-5-(6-dimethylamino-pyrazin-2-yloxy)-N-(1-hydroxy-cyclohexylmethyl)-benzamide] it was 504 nM; in that of `O=C(NCC1(O)CCCCC1)c1cc(Oc2cncc(=O)[nH]2)ccc1Cl` [Example 126, 2-Chloro-N-(1-hydroxy-cyclohexylmethyl)-5-(6-oxo-1,6-dihydro-pyrazin-2-yloxy)-benzamide], 461 nM; in that of `O=C(NCC1(O)CCCCC1)c1cc(Oc2ccc(Cl)nn2)ccc1Cl` [Example 127, 2-Chloro-5-(6-chloro-pyridazin-3-yloxy)-N-(1-hydroxy-cyclohexylmethyl)-benzamide], 58 nM.

With `COc1ccc(Oc2ccc(Cl)c(C(=O)NCC3(O)CCCCC3)c2)nn1` [Example 128, 2-Chloro-N-(1-hydroxy-cyclohexylmethyl)-5-(6-methoxy-pyridazin-3-yloxy)-benzamide], the half-maximal inhibitory concentration (IC50) is 30 nM.

As to `O=C(NCC1(O)CCCCC1)c1cc(Oc2ccc(=O)[nH]n2)ccc1Cl` [Example 129, 2-Chloro-N-(1-hydroxy-cyclohexylmethyl)-5-(6-oxo-1,6-dihydro-pyridazin-3-yloxy)-benzamide], the concentration for half-maximal inhibition (IC50) is 80 nM. In the case of `O=C(NCC1(O)CCCCC1)c1cc(Oc2cccnn2)ccc1Cl` [Example 130, 2-Chloro-N-(1-hydroxy-cyclohexylmethyl)-5-(pyridazin-3-yloxy)-benzamide] it was 67 nM; in that of `COc1cnnc(Oc2ccc(Cl)c(C(=O)NCC3(O)CCCCC3)c2)c1` [Example 131, 2-Chloro-N-(1-hydroxy-cyclohexylmethyl)-5-(5-methoxy-pyridazin-3-yloxy)-benzamide], 206 nM. To `O=C(NCC1(O)CCCCC1)c1cc(Sc2ccccn2)ccc1Cl` [Example 132, 2-Chloro-N-(1-hydroxy-cyclohexylmethyl)-5-(pyridin-2-ylsulfanyl)-benzamide] belongs 46 nM; to `O=C(NCC1(O)CCCCC1)c1cc(S(=O)(=O)c2ccccn2)ccc1Cl` [Example 134, 2-Chloro-N-(1-hydroxy-cyclohexylmethyl)-5-(pyridine-2-sulfonyl)-benzamide], 105 nM; to `O=C(NCC1(O)CCCCC1)c1cc(Sc2ccnc(Cl)n2)ccc1Cl` [Example 135, 2-Chloro-5-(2-chloro-pyrimidin-4-ylsulfanyl)-N-(1-hydroxy-cyclohexylmethyl)-benzamide], 266 nM. In the case of `O=C(NCC1(O)CCCCC1)c1cc(Sc2cc[nH]c(=O)n2)ccc1Cl` [Example 137, 2-Chloro-N-(1-hydroxy-cyclohexylmethyl)-5-(2-oxo-1,2-dihydro-pyrimidin-4-ylsulfanyl)-benzamide] it was 8.1 nM. As for `O=C(NCC1(O)CCC(F)(F)CC1)c1cc(Sc2cc[nH]c(=O)n2)ccc1Cl` [Example 138, 2-Chloro-N-(4,4-difluoro-1-hydroxy-cyclohexylmethyl)-5-(2-oxo-1,2-dihydro-pyrimidin-4-ylsulfanyl)-benzamide], the half-inhibitory concentration (IC50) came out at 10 nM.

As for `COc1nccc(Sc2ccc(Cl)c(C(=O)NCC3(O)CCCCC3)c2)n1` [Example 139, 2-Chloro-N-(1-hydroxy-cyclohexylmethyl)-5-(2-methoxy-pyrimidin-4-ylsulfanyl)-benzamide], the IC50 worked out at 74 nM.
